Measured values taken from ChEMBL document CHEMBL1782045, “Discovery, synthesis, and investigation of the antitumor activity of novel piperazinylpyrimidine derivatives” (Eur J Med Chem, 2011).

Legend:
[1] = tested on: U-251; test: Growth inhibition of human U251 cells after 48 hrs by sulforhodamine B assay; assay type: functional; details: U-251, 48 h
[2] = target: RAC-beta serine/threonine-protein kinase (Homo sapiens) (UniProt P31751); test: Inhibition of human PKBbeta using gamma-33P-ATP as substrate assessed as enzyme functional activity at 1 uM by scintillation counting relative to untreated control; design: scale not given: the % may be the effect or the level left
[3] = tested on: HOP-62; test: Growth inhibition of human HOP62 cells after 48 hrs by sulforhodamine B assay; assay type: functional; details: HOP-62, 48 h
[4] = target: Macrophage colony-stimulating factor 1 receptor (Homo sapiens) (UniProt P07333); test: Binding affinity to human CSF1R at 10 uM incubated for 1 hr by kinase binding assay relative to untreated control
[5] = target: Tyrosine-protein kinase ABL1 (Homo sapiens) (UniProt P00519); test: Inhibition of human ABL using gamma-33P-ATP as substrate assessed as enzyme functional activity at 1 uM by scintillation counting relative to untreated control; design: scale not given: the % may be the effect or the level left
[6] = target: Cyclin-dependent kinase 19 (Homo sapiens) (UniProt Q9BWU1); test: Binding affinity to human CDK11 at 10 uM incubated for 1 hr by kinase binding assay relative to untreated control
[7] = target: Mitogen-activated protein kinase 1 (Homo sapiens) (UniProt P28482); test: Inhibition of human MAPK1 using gamma-33P-ATP as substrate assessed as enzyme functional activity at 1 uM by scintillation counting relative to untreated control; design: scale not given: the % may be the effect or the level left
[8] = tested on: HCT-15; test: Growth inhibition of human HCT15 cells after 48 hrs by sulforhodamine B assay; assay type: functional; details: HCT-15, 48 h
[9] = tested on: T1, Receptor-type tyrosine-protein kinase FLT3 (Homo sapiens), P36888 [K663Q]; test: Binding affinity to human FLT3 K663Q mutant at 10 uM incubated for 1 hr by kinase binding assay relative to untreated control
T1 sequence (whole entry): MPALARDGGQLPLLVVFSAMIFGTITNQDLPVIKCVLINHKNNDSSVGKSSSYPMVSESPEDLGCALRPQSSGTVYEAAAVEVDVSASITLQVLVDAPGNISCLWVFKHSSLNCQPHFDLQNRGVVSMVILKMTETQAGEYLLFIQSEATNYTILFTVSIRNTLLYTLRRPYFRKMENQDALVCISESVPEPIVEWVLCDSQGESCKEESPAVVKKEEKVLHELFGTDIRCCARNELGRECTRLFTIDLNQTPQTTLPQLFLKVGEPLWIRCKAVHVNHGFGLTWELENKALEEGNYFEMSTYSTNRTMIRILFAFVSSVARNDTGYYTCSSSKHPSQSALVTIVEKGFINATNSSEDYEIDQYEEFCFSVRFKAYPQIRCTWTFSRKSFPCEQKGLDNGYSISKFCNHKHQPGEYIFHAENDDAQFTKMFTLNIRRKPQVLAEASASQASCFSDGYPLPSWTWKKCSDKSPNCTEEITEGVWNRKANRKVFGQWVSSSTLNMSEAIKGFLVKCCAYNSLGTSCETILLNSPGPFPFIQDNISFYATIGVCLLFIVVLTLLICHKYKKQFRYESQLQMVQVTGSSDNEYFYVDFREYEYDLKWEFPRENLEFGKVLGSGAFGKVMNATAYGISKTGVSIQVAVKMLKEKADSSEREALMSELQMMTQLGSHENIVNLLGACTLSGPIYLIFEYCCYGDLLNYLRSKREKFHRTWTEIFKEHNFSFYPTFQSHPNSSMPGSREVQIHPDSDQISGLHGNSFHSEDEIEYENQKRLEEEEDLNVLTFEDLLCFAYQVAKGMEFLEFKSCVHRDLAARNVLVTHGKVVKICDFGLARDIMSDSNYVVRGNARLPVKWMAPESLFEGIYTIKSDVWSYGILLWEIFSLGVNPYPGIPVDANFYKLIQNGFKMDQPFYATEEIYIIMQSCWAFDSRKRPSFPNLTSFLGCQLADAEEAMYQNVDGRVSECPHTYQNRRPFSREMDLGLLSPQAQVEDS

[10] = target: Epithelial discoidin domain-containing receptor 1 (Homo sapiens) (UniProt Q08345); test: Binding affinity to human DDR1 at 10 uM incubated for 1 hr by kinase binding assay relative to untreated control
[11] = tested on: MCF7; test: Cytotoxicity against human MCF7 cells after 48 hrs by sulforhodamine B assay; assay type: cell-based; details: mcf7, 48 h
[12] = tested on: OVCAR-3; test: Cytotoxicity against human OVCAR3 cells after 48 hrs by sulforhodamine B assay; assay type: cell-based; details: ovcar-3, 48 h
[13] = tested on: SW-620; test: Growth inhibition of human SW620 cells after 48 hrs by sulforhodamine B assay; assay type: functional; details: SW-620, 48 h
[14] = tested on: PC-3; test: Cytotoxicity against human PC3 cells after 48 hrs by sulforhodamine B assay; assay type: cell-based; details: pc-3, 48 h
[15] = target: Casein kinase I isoform epsilon (Homo sapiens) (UniProt P49674); test: Binding affinity to human CSNK1E at 10 uM incubated for 1 hr by kinase binding assay relative to untreated control
[16] = tested on: KM12; test: Cytotoxicity against human KM12 cells after 48 hrs by sulforhodamine B assay; assay type: cell-based; details: km12, 48 h
[17] = tested on: MDA-MB-231; test: Growth inhibition of human MDA-MB-231 cells after 48 hrs by sulforhodamine B assay; assay type: functional; details: MDA-MB-231, 48 h
[18] = tested on: A498; test: Cytotoxicity against human A498 cells after 48 hrs by sulforhodamine B assay; assay type: cell-based; details: a498, 48 h
[19] = tested on: SK-MEL-2; test: Growth inhibition of human SK-MEL-2 cells after 48 hrs by sulforhodamine B assay; assay type: functional; details: SK-MEL-2, 48 h
[20] = tested on: Hs-578T; test: Cytotoxicity against human Hs578T cells after 48 hrs by sulforhodamine B assay; assay type: cell-based
[21] = tested on: RPMI-8226; test: Cytotoxicity against human RPMI8226 cells after 48 hrs by sulforhodamine B assay; assay type: cell-based; details: rpmi-8226, 48 h
[22] = tested on: NCI-H322M; test: Growth inhibition of human NCI-H322M cells after 48 hrs by sulforhodamine B assay; assay type: functional
[23] = target: Hepatocyte growth factor receptor (Homo sapiens, UniProt P08581); test: Inhibition of human MET using gamma-33P-ATP as substrate assessed as enzyme functional activity at 1 uM by scintillation counting relative to untreated control; design: scale not given: the % may be the effect or the level left
[24] = tested on: OVCAR-3; test: Growth inhibition of human OVCAR3 cells after 48 hrs by sulforhodamine B assay; assay type: functional; details: OVCAR-3, 48 h
[25] = tested on: K562; test: Cytotoxicity against human K562 cells after 48 hrs by sulforhodamine B assay; assay type: cell-based; details: k562, 48 h
[26] = tested on: HT-29; test: Cytotoxicity against human HT-29 cells after 48 hrs by sulforhodamine B assay; assay type: cell-based; details: ht-29, 48 h
[27] = target: Casein kinase I isoform gamma-2 (Homo sapiens) (UniProt P78368); test: Binding affinity to human CSNK1G2 at 10 uM incubated for 1 hr by kinase binding assay relative to untreated control
[28] = target: Platelet-derived growth factor receptor beta (Homo sapiens) (UniProt P09619); test: Binding affinity to human PDGFRB at 10 uM incubated for 1 hr by kinase binding assay relative to untreated control
Sequence of Platelet-derived growth factor receptor beta (Homo sapiens) (P09619 whole entry): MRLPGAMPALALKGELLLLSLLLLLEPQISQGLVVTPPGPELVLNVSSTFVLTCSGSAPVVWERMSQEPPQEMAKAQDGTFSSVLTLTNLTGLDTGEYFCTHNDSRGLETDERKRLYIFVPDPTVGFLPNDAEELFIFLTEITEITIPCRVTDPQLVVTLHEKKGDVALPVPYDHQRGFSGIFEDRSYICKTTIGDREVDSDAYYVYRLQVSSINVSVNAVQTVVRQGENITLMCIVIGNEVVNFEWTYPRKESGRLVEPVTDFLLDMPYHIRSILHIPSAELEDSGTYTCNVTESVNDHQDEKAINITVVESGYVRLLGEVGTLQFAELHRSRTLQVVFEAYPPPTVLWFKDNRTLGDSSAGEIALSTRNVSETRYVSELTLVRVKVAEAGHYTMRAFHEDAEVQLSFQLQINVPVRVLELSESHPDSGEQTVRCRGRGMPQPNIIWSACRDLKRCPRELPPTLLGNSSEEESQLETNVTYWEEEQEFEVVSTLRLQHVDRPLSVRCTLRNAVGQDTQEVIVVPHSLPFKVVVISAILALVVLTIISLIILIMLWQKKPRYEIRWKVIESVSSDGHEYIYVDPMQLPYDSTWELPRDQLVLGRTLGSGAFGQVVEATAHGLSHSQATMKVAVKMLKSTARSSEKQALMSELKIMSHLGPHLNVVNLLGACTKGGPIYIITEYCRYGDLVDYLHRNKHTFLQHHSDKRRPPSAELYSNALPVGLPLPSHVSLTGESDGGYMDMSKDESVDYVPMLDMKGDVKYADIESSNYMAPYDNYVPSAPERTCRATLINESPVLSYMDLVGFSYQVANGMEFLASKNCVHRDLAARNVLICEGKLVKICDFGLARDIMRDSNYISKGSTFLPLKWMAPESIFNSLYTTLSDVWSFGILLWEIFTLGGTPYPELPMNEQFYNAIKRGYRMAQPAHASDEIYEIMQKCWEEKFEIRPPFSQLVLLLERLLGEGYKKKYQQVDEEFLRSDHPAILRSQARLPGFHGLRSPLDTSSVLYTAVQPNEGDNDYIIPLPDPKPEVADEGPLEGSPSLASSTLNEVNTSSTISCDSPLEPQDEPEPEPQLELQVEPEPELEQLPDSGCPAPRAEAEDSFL

Sequence of RAC-beta serine/threonine-protein kinase (Homo sapiens) (P31751 whole entry): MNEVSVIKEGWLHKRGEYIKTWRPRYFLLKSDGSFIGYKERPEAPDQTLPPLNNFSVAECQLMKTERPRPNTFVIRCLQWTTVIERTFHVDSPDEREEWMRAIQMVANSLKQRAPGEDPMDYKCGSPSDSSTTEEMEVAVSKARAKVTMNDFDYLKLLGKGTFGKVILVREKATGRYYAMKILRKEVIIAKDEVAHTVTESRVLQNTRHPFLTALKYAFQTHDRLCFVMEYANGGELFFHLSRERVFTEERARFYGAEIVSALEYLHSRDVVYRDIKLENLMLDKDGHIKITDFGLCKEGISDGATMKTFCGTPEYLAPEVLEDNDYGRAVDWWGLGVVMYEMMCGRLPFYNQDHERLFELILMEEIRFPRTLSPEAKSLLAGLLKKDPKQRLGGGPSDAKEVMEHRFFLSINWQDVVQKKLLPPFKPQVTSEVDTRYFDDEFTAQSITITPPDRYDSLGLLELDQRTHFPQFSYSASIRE
Sequence of Epithelial discoidin domain-containing receptor 1 (Homo sapiens) (Q08345 whole entry, the tested form may be a part): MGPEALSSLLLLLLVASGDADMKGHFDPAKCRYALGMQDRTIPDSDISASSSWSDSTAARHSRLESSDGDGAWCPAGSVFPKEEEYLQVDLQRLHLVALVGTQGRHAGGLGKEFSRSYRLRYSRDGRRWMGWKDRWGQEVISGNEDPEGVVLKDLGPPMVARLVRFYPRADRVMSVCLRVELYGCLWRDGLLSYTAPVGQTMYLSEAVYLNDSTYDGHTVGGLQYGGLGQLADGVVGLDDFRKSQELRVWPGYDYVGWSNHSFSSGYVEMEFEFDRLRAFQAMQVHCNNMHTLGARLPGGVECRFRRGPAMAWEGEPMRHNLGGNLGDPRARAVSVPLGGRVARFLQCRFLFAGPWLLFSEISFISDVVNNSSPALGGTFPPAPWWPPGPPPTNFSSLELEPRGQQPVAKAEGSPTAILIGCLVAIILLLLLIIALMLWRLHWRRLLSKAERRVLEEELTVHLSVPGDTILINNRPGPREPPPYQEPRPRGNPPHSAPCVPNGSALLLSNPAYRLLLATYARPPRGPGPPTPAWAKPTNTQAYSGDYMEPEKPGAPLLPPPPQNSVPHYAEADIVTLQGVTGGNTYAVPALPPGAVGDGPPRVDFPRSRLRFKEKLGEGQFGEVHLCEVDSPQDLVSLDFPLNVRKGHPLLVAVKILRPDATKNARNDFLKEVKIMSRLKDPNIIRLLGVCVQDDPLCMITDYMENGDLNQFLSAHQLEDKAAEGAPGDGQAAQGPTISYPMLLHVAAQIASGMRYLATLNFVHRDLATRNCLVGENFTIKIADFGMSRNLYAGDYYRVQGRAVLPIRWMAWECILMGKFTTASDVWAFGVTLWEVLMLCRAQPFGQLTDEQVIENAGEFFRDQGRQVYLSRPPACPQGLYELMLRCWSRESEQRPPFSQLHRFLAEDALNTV
Sequence of Casein kinase I isoform epsilon (Homo sapiens) (P49674 whole entry, looked up, canonical isoform): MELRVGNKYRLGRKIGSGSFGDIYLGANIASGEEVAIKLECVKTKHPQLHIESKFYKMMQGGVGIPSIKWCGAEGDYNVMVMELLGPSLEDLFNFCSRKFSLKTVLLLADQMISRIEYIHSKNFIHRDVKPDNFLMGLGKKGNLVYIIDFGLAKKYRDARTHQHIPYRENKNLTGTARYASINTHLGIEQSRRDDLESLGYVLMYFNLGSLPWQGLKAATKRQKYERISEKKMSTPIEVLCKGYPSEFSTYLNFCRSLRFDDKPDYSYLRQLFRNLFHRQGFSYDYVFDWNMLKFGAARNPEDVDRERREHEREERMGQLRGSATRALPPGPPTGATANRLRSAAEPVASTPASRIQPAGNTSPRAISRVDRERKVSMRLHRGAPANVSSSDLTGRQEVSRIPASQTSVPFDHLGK
Sequence of Tyrosine-protein kinase ABL1 (Homo sapiens) (P00519 whole entry): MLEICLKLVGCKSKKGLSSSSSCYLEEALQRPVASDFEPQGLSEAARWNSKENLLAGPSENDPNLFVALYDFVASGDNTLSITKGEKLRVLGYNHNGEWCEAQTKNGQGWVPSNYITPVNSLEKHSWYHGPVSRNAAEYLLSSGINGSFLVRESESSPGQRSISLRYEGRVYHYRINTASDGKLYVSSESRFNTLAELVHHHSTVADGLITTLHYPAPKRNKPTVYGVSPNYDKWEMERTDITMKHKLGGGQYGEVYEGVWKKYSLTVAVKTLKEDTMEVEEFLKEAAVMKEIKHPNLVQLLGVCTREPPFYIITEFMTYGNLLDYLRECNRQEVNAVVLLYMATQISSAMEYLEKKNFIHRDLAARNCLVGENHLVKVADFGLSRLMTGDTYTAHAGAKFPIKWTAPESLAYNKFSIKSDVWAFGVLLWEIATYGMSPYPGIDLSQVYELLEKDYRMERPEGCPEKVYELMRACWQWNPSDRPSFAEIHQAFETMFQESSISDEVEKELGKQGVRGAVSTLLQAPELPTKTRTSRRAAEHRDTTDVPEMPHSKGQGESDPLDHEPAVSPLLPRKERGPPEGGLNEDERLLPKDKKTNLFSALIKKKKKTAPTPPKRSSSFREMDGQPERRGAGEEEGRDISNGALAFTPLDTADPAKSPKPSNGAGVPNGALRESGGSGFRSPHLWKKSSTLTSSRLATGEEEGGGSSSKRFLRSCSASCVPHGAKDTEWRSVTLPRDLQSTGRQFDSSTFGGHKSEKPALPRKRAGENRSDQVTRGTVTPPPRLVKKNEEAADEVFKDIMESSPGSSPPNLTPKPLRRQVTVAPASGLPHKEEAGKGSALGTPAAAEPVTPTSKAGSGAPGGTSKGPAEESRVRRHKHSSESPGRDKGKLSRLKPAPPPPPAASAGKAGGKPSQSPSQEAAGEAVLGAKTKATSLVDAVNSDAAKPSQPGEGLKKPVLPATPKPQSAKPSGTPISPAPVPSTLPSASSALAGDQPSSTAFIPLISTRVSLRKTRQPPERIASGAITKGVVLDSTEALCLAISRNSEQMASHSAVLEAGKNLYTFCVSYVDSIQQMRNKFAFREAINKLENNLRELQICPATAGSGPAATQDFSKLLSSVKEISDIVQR
Sequence of Cyclin-dependent kinase 19 (Homo sapiens) (Q9BWU1 whole entry): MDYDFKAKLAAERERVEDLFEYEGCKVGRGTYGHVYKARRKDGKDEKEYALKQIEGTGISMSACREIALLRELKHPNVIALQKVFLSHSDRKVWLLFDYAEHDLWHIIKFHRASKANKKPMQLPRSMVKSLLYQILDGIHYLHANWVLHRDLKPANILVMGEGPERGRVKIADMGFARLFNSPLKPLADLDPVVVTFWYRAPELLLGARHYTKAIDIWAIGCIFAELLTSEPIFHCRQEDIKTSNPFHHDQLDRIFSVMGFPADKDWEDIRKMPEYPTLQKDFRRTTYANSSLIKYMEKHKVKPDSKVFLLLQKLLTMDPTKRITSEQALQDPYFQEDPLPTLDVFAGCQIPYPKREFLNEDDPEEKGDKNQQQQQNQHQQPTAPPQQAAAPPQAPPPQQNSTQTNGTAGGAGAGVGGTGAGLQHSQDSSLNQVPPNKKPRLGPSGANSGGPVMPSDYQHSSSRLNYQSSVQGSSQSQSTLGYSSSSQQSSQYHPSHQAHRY
Sequence of Mitogen-activated protein kinase 1 (Homo sapiens) (P28482 whole entry): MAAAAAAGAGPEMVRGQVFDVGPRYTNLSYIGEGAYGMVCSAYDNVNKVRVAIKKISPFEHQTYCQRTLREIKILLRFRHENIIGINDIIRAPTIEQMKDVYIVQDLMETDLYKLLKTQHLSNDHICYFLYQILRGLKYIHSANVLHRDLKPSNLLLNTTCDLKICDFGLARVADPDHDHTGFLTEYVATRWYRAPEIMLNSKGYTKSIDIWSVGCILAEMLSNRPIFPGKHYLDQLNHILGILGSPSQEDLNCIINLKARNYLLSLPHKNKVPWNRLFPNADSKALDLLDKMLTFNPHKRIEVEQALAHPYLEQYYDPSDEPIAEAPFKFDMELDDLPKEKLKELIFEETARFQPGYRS

Structure (SMILES) | TGI [1] [µM] | Activity [2] [%] | TGI [3] [µM] | Activity [4] [%] | Activity [5] [%] | Activity [6] [%] | Activity [7] [%] | TGI [8] [µM] | Activity [9] [%] | Activity [10] [%] | LC50 [11] [µM] | LC50 [12] [µM] | TGI [13] [µM] | LC50 [14] [µM] | Activity [15] [%] | LC50 [16] [µM] | TGI [17] [µM] | LC50 [18] [µM] | TGI [19] [µM] | LC50 [20] [µM] | other results
O=C(c1cccc(Nc2ncnc3ccccc23)c1)N1CCN(c2ncc(Cc3ccccc3)cn2)CC1 | 6.61 | 83 | 3.47 | > 50 | 87 | > 50 | 73 | 3.55 | > 50 | 28 | 5.62 | > 100 | 4.27 | > 100 | 23 | 6.61 | 2.95 | > 100 | 2.69 | > 100 | LC50 [21]: 3.89 µM; TGI [22]: 4.79 µM; Activity [23]: 100%; TGI [24]: 8.13 µM; LC50 [25]: > 100 µM; LC50 [26]: > 100 µM; Activity [27]: 43%; Activity [28]: > 50%
c1ccc(Cc2cnc(N3CCN(c4ncnc5ccccc45)CC3)nc2)cc1 | 24.6 | 89 | 51.6 | 31 | 92 | 0 | 100 | 63.2 | 4 | 47 | > 100 | 48.2 | 27.7 | > 100 | 45 | 50.1 | 38.1 | 50.1 | 35.8 | > 100 | LC50 [21]: 97.3 µM; TGI [22]: > 100 µM; Activity [23]: 75%; TGI [24]: 23.2 µM; LC50 [25]: > 100 µM; LC50 [26]: 79.2 µM; Activity [27]: > 50%; Activity [28]: 4.1%
CCc1cnc(N2CCN(C(=O)c3ccc(CNc4ncnc5ccccc45)cc3)CC2)nc1 | > 100 | 82 | > 100 | > 50 | 80 | 47 | 100 | > 100 | > 50 | > 50 | > 100 | > 100 | 45.1 | > 100 | 29 | 53.8 | 84.9 | > 100 | > 100 | > 100 | LC50 [21]: > 100 µM; TGI [22]: > 100 µM; Activity [23]: 100%; TGI [24]: > 100 µM; LC50 [25]: > 100 µM; LC50 [26]: > 100 µM; Activity [27]: 18%; Activity [28]: > 50%
